Patent US20260297042A1, “BIARYLAMIDE DERIVATIVES AND THEIR USE AS PKMYT1 INHIBITORS” (CANCER RESEARCH TECHNOLOGY LIMITED, priority 2023, published 2026)
pIC50: −log10 of the molar value. Structures can show the parent of a compound that is named as a salt.

What was measured:
[1] = target: T1, Human PKMYT1 (Homo sapiens, UniProt Q99640); assay: PKMYT1 biochemical ADP-Glo enzymatic assay; conditions: ADP-Glo
T1 construct: Human PKMYT1 75-362 was cloned as a TEV cleavable 6xHis fusion; 6xHis (TEV cleavable) (cleaved yes); made in house; host or cells: bacterial cells
T1 sequence (Q99640 75-362): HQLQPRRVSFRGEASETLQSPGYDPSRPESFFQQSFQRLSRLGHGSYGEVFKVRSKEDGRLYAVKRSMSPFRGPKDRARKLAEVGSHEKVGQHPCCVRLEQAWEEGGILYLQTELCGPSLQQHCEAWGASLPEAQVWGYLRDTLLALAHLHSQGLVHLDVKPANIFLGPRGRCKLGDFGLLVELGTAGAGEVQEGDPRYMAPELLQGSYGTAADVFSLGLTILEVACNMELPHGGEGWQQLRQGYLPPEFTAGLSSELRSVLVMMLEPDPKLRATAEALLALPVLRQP
Method in brief: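 Luminescent ADP-Glo Max read-out of ADP produced by 15 nM PKMYT1 (residues 75-362, bacterial, His-tag removed) from 500 µM ATP without peptide substrate. Reaction: 50 mM HEPES pH 7.5, 10 mM MgCl2, 1 mM EGTA, 0.01% Brij-35, 60 min, 26 °C. IC50 values fitted from 10-point curves.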

[2] = target: T2, WEE1 (Homo sapiens, UniProt P30291); assay: Selectivity versus WEE1 assay (ADP-Glo enzymatic assay); format: biochemical; conditions: for pIC50: ADP-Glo; for PKMYT1 vs. WEE1 selectivity: fold difference in selectivity for PKMYT1 over WEE1
T2 construct: purchased Thermo Fisher PR7373A
T2 sequence (P30291 whole entry): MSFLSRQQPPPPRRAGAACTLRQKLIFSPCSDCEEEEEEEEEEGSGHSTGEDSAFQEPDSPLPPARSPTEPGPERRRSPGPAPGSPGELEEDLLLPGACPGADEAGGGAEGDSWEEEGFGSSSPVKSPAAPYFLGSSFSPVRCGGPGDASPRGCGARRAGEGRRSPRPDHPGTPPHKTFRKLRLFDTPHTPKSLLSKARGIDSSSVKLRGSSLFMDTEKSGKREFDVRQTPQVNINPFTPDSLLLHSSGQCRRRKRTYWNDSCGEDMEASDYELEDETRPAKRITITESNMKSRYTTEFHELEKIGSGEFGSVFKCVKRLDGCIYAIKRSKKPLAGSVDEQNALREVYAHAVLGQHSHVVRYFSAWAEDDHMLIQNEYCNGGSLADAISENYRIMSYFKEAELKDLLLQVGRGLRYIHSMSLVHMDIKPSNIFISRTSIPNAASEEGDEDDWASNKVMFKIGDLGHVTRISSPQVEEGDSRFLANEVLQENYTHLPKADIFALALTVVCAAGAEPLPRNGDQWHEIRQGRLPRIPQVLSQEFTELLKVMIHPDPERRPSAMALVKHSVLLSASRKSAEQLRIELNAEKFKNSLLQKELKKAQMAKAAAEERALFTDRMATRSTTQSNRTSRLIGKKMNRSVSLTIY
Method in brief: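 ADP-Glo luminescence read-out after a 60 min reaction at 26° C, initiated by 30 µM ATP, with 15 nM enzyme in HEPES pH 7.5/MgCl2/EGTA/Brij-35 buffer containing 1% DMSO. Replicate IC50 values had to agree within 3-fold and fits needed r2 >0.9.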

[3] = 15 nM PKMYT1 kinase domain, 500 µM ATP, 60 minutes at 26° C., banded
[4] = 15 nM WEE1, 60 minutes at 26° C., banded
[5] = banded, ">N" = at least in this band but could be higher
[6] = PKMYT1 kinase domain 15 nM, banded values

Row | SMILES | pIC50 [1, 3] | pIC50 [2, 4] | PKMYT1 vs. WEE1 selectivity [2, 5] | pIC50 [1, 6] | pIC50 ([2]; WEE1 15 nM, banded values) | PKMYT1 vs. WEE1 selectivity ([2]; banded)
1 | Cc1ccc(O)c(C)c1NC(=O)c1cnc(Nc2ccn([C@@H]3CCN(C(=O)C4CCOCC4)C3)n2)s1 [BAA-082] | 6.00 to 7.30 | < 4.96 | >X (100-<1000 fold) |  |  | 
2 | Cc1nc2cc(Nc3ncc(C(=O)Nc4c(C)ccc(O)c4C)s3)ccc2o1 [BAA-445, N-(3-hydroxy-2,6-dimethylphenyl)-2-((2-methylbenzo[d]oxazol-5-yl)amino)thiazole-5-carboxamide] |  |  |  | 6.00 to 7.30 | 4.96 to 6.00 | X (100-<1000 fold)
3 | Cc1ccc(O)c(C)c1NC(=O)c1cnc(Nc2ccn([C@@H]3CCN(C(=O)Cc4ccncc4)C3)n2)s1 [BAA-104, N-(3-hydroxy-2,6-dimethyl-phenyl)-2-[1-[(3R)-1-[2-(4-pyridyl)acetyl]pyrrolidin-3-yl]pyrazol-3-ylamino]thiazole-5-carboxamide] | 6.00 to 7.30 | < 4.96 | >X (100-<1000 fold) |  |  | 
4 | Cc1ccc(O)c(C)c1NC(=O)c1cnc(Nc2ccn([C@@H]3CCN(C(=O)Cc4ccc(N(C)C)cc4)C3)n2)s1 [BAA-105, 2-[[1-[(3R)-1-[2-[4-(dimethylamino)phenyl]acetyl]pyrrolidin-3-yl]pyrazol-3-yl]amino]-N-(3-hydroxy-2,6-dimethyl-phenyl) thiazole-5-carboxamide] | 6.00 to 7.30 | < 4.96 | >Y (1000-5000 fold) |  |  | 
5 | Cc1ccc(O)c(C)c1NC(=O)c1cnc(Nc2ccn([C@@H]3CCN(C(=O)OC(C)(C)C)C3)n2)s1 [BAA-043, tert-Butyl(3R)-3-[3-[[5-[(3-hydroxy-2.6-dimethyl-phenyl)carbamoyl]thiazol-2-yl]amino]pyrazol-1-yl]pyrrolidine-1-carboxylate] | 6.00 to 7.30 | < 4.96 | >Y (1000-5000 fold) |  |  | 
6 | COCc1cc(Nc2ncc(C(=O)Nc3c(C)ccc(O)c3C)s2)nn1C [BAA-252, N-(3-hydroxy-2,6-dimethylphenyl)-2-((5-(methoxymethyl)-1-methyl-1H-pyrazol-3-yl)amino)thiazole-5-carboxamide] | 6.00 to 7.30 | 4.96 to 6.00 | X (100-<1000 fold) |  |  | 
7 | Cc1cn(C2CNC2)nc1Nc1ncc(C(=O)Nc2c(C)ccc(O)c2C)s1 [BAA-273, 2-((1-(azetidin-3-yl)-4-methyl-1H-pyrazol-3-yl)amino)-N-(3-hydroxy-2,6-dimethylphenyl)thiazole-5-carboxamide hydrochloride] | > 7.30 | 6.00 to 7.30 | W (10-<100 fold) |  |  | 
8 | Cc1ccc(O)c(C)c1NC(=O)c1cnc(Nc2nc(C)c(-c3cc(F)cc(F)c3)c(C)n2)s1 [BAA-301, 2-((5-(3,5-difluorophenyl)-4,6-dimethylpyrimidin-2-yl)amino)-N-(3-hydroxy-2,6-dimethylphenyl)thiazole-5-carboxamide] | 6.00 to 7.30 | < 4.96 | X (100-<1000 fold) |  |  | 
9 | Cc1ccc(O)c(C)c1NC(=O)c1cnc(Nc2c(C)cnn2Cc2cccc(F)c2)s1 [BAA-375, 2-((1-(3-Fluorobenzyl)-4-methyl-1H-pyrazol-5-yl)amino)-N-(3-hydroxy-2,6-dimethylphenyl)thiazole-5-carboxamide] | 4.96 to 6.00 | < 4.96 | W (10-<100 fold) |  |  | 
10 | Cc1ccc(O)c(C)c1NC(=O)c1cnc(N[C@@H](C)c2ccccc2)s1 [BAA-351, (S)-N-(3-hydroxy-2,6-dimethylphenyl)-2-((1-phenylethyl)amino) thiazole-5-carboxamide] | 4.96 to 6.00 | < 4.96 | W (10-<100 fold) |  |  | 
11 | Cc1ccc(O)c(C)c1NC(=O)c1cnc(Nc2ccn([C@@H]3CCN(C(=O)Cc4ccccc4F)C3)n2)s1 [BAA-095] | 6.00 to 7.30 | < 4.96 | >Y (1000-5000 fold) |  |  | 
12 | Cc1ccc(O)c(C)c1NC(=O)c1cnc(Nc2ccn(CC(=O)N3CCOCC3)n2)s1 [BAA-033] | > 7.30 | < 4.96 | X (100-<1000 fold) |  |  | 
13 | COc1ccccc1Nc1ncc(C(=O)Nc2c(C)ccc(O)c2C)s1 [BAA-528, N-(3-hydroxy-2,6-dimethylphenyl)-2-((2-methoxyphenyl)amino)thiazole-5-carboxamide. TFA salt] |  |  |  | 6.00 to 7.30 | < 4.96 | X (100-<1000 fold)
14 | Cc1ccc(O)c(C)c1NC(=O)c1cnc(Nc2cccc3c2CCC3)s1 [BAA-443, 2-((2,3-dihydro-1H-inden-4-yl)amino)-N-(3-hydroxy-2,6-dimethylphenyl)thiazole-5-carboxamide] |  |  |  | 6.00 to 7.30 | < 4.96 | X (100-<1000 fold)
15 | Cc1ccc(O)c(C)c1NC(=O)c1cnc(Nc2nn(C)c3cc(Br)ccc23)s1 [BAA-267, 2-((6-bromo-1-methyl-1H-indazol-3-yl)amino)-N-(3-hydroxy-2,6-dimethylphenyl)thiazole-5-carboxamide] | 6.00 to 7.30 | < 4.96 | X (100-<1000 fold) |  |  | 
16 | Cc1ccc(O)c(C)c1NC(=O)c1cnc(Nc2cc(C)n(CCC(=O)O)n2)s1 [BAA-241, 3-(3-((5-((3-hydroxy-2,6-dimethylphenyl)carbamoyl)thiazol-2-yl)amino)-5-methyl-1H-pyrazol-1-yl)propanoic acid] | 6.00 to 7.30 | < 4.96 | X (100-<1000 fold) |  |  | 
17 | CCN(CCO)C(=O)Cn1cc(C)c(Nc2ncc(C(=O)Nc3c(C)ccc(O)c3C)s2)n1 [BAA-535, 2-((1-(2-(Ethyl(2-hydroxyethyl)amino)-2-oxoethyl)-4-methyl-1H-pyrazol-3-yl)amino)-N-(3-hydroxy-2,6-dimethylphenyl)thiazole-5-carboxamide] |  |  |  | > 7.30 | 4.96 to 6.00 | X (100-<1000 fold)
18 | Cc1ccc(O)c(C)c1NC(=O)c1cnc(Nc2nc(C(F)(F)F)co2)s1 [BAA-438, N-(3-hydroxy-2,6-dimethylphenyl)-2-((4-(trifluoromethyl)oxazol-2-yl)amino) thiazole-5-carboxamide] |  |  |  | 4.96 to 6.00 | < 4.96 | W (10-<100 fold)
19 | Cc1ccc(O)c(C)c1NC(=O)c1cnc(Nc2ccn([C@@H]3CCN(C(=O)CC(C)C)C3)n2)s1 [BAA-096, N-(3-hydroxy-2,6-dimethyl-phenyl)-2-[[1-[(3R)-1-(3-methylbutanoyl)pyrrolidin-3-yl]pyrazol-3-yl]amino]thiazole-5-carboxamide] | 6.00 to 7.30 | < 4.96 | >Y (1000-5000 fold) |  |  | 
20 | Cc1ccc(O)c(C)c1NC(=O)c1cnc(Nc2ccn(CCCO)n2)s1 [BAA-002, N-(3-Hydroxy-2,6-dimethyl-phenyl)-2-[[1-(3-hydroxypropyl)pyrazol-3-yl]amino]thiazole-5-carboxamide] | > 7.30 | 4.96 to 6.00 | W (10-<100 fold) |  |  | 
21 | Cc1ccc(O)c(C)c1NC(=O)c1cnc(NCc2ccn(C)n2)s1 [BAA-348, N-(3-hydroxy-2,6-dimethylphenyl)-2-(((1-methyl-1H-pyrazol-3-yl)methyl)amino) thiazole-5-carboxamide] | 6.00 to 7.30 | < 4.96 | X (100-<1000 fold) |  |  | 
22 | Cc1cc(C)c(NC(=O)c2cnc(Nc3ccn(CC(=O)N4CCCC4)n3)s2)c(C)c1O [BAA-516, N-(3-hydroxy-2,4,6-trimethylphenyl)-2-((1-(2-oxo-2-(pyrrolidin-1-yl)ethyl)-1H-pyrazol-3-yl)amino)thiazole-5-carboxamide] |  |  |  | 6.00 to 7.30 | < 4.96 | X (100-<1000 fold)
23 | Cc1ccc(O)c(C)c1NC(=O)c1cnc(Nc2ccn(CC(=O)NCCN3CCCCC3)n2)s1 [BAA-168, N-(3-hydroxy-2,6-dimethyl-phenyl)-2-[[1-[2-oxo-2-[2-(1-piperidyl)ethylamino]ethyl]pyrazol-3-yl]amino]thiazole-5-carboxamide (hydrochloride)] | 6.00 to 7.30 | < 4.96 | W (10-<100 fold) |  |  | 
24 | Cc1ccc(O)c(C)c1NC(=O)c1cnc(NCc2ccncc2)s1 [BAA-350, N-(3-hydroxy-2,6-dimethylphenyl)-2-((pyridin-4-ylmethyl)amino) thiazole-5-carboxamide] | 6.00 to 7.30 | < 4.96 | Y (1000-5000 fold) |  |  | 
25 | Cc1ccc(O)c(C)c1NC(=O)c1cnc(Nc2ncc3cc(F)ccc3n2)s1 [BAA-296, 2-((6-fluoroquinazolin-2-yl)amino)-N-(3-hydroxy-2,6-dimethylphenyl)thiazole-5-carboxamide] | > 7.30 | < 4.96 | Y (1000-5000 fold) |  |  | 
